± gives the expanded uncertainty stated by the source.
Columns and labels:
[1] = xn = mol fraction of the nth substance listed; conditions: 101 kPa, Liquid
[2] = 101 kPa, Liquid

Cc1ccccc1 [toluene] + O=CN1CCOCC1
[1], x1 = 1
Conditions	mass density [kg/m3]	viscosity [mPa·s]
298.15 K	861.65 ± 1.4	0.553 ± 0.03
303.15 K	857.01 ± 1.4	0.522 ± 0.029
313.15 K	847.63 ± 1.5	0.467 ± 0.026
323.15 K	838.23 ± 1.5	0.421 ± 0.024
333.15 K	828.71 ± 1.6	0.381 ± 0.023
343.15 K	819.86 ± 1.6	0.349 ± 0.021
353.15 K	809.68 ± 1.7	0.321 ± 0.02

Cc1ccccc1 [toluene]
[2]
Conditions	mass density [kg/m3]	viscosity [mPa·s]
298.15 K	861.65 ± 1.4	0.553 ± 0.03
303.15 K	857.01 ± 1.4	0.522 ± 0.029
313.15 K	847.63 ± 1.5	0.467 ± 0.026
323.15 K	838.23 ± 1.5	0.421 ± 0.024
333.15 K	828.71 ± 1.6	0.381 ± 0.023
343.15 K	819.86 ± 1.6	0.349 ± 0.021
353.15 K	809.68 ± 1.7	0.321 ± 0.02

O=CN1CCOCC1 [N-formylmorpholine] + c1ccccc1
[1]
Conditions	mass density [kg/m3]	viscosity [mPa·s]
298.15 K, x2 = 0	1146.06 ± 1.5	7.955 ± 0.31
298.15 K, x2 = 0.0977	1124.83 ± 1.3	6.078 ± 0.25
298.15 K, x2 = 0.198	1101.75 ± 1.2	4.597 ± 0.2
298.15 K, x2 = 0.2987	1077.06 ± 1	3.524 ± 0.16
298.15 K, x2 = 0.4013	1051.67 ± 0.85	2.656 ± 0.12
298.15 K, x2 = 0.4983	1027.35 ± 0.69	2.051 ± 0.094
298.15 K, x2 = 0.599	1001.36 ± 0.53	1.602 ± 0.075
298.15 K, x2 = 0.6999	970.18 ± 0.7	1.234 ± 0.059
298.15 K, x2 = 0.802	938.33 ± 0.9	0.96 ± 0.048
298.15 K, x2 = 0.8967	908.12 ± 1.1	0.76 ± 0.039
303.15 K, x2 = 0	1141.7 ± 1.4	6.877 ± 0.28
303.15 K, x2 = 0.0977	1120.44 ± 1.3	5.251 ± 0.23
303.15 K, x2 = 0.198	1097.28 ± 1.1	4.028 ± 0.18
303.15 K, x2 = 0.2987	1072.53 ± 0.99	3.109 ± 0.14
303.15 K, x2 = 0.4013	1046.95 ± 0.82	2.376 ± 0.11
303.15 K, x2 = 0.4983	1022.6 ± 0.66	1.858 ± 0.086
303.15 K, x2 = 0.599	996.29 ± 0.54	1.456 ± 0.069
303.15 K, x2 = 0.6999	965.22 ± 0.73	1.13 ± 0.055
303.15 K, x2 = 0.802	933.24 ± 0.93	0.884 ± 0.044
303.15 K, x2 = 0.8967	902.85 ± 1.1	0.706 ± 0.037
313.15 K, x2 = 0	1132.96 ± 1.4	5.214 ± 0.22
313.15 K, x2 = 0.0977	1111.6 ± 1.2	4.059 ± 0.18
313.15 K, x2 = 0.198	1088.31 ± 1.1	3.174 ± 0.14
313.15 K, x2 = 0.2987	1063.41 ± 0.93	2.492 ± 0.11
313.15 K, x2 = 0.4013	1037.61 ± 0.76	1.946 ± 0.09
313.15 K, x2 = 0.4983	1013.15 ± 0.61	1.538 ± 0.072
313.15 K, x2 = 0.599	986.09 ± 0.61	1.217 ± 0.059
313.15 K, x2 = 0.6999	955.16 ± 0.79	0.962 ± 0.048
313.15 K, x2 = 0.802	922.97 ± 0.99	0.759 ± 0.039
313.15 K, x2 = 0.8967	892.39 ± 1.2	0.613 ± 0.033
323.15 K, x2 = 0	1124.33 ± 1.3	4.08 ± 0.18
323.15 K, x2 = 0.0977	1102.85 ± 1.2	3.23 ± 0.14
323.15 K, x2 = 0.198	1079.44 ± 1	2.568 ± 0.12
323.15 K, x2 = 0.2987	1054.39 ± 0.87	2.046 ± 0.094
323.15 K, x2 = 0.4013	1028.33 ± 0.71	1.614 ± 0.076
323.15 K, x2 = 0.4983	1003.64 ± 0.55	1.296 ± 0.062
323.15 K, x2 = 0.599	975.97 ± 0.67	1.037 ± 0.051
323.15 K, x2 = 0.6999	945.02 ± 0.86	0.826 ± 0.042
323.15 K, x2 = 0.802	912.7 ± 1.1	0.66 ± 0.035
323.15 K, x2 = 0.8967	881.97 ± 1.2	0.538 ± 0.029
333.15 K, x2 = 0	1115.63 ± 1.3	3.284 ± 0.15
333.15 K, x2 = 0.0977	1094.03 ± 1.1	2.636 ± 0.12
333.15 K, x2 = 0.198	1070.44 ± 0.98	2.124 ± 0.097
333.15 K, x2 = 0.2987	1045.28 ± 0.82	1.715 ± 0.08
333.15 K, x2 = 0.4013	1018.97 ± 0.65	1.371 ± 0.065
333.15 K, x2 = 0.4983	993.97 ± 0.56	1.11 ± 0.054
333.15 K, x2 = 0.599	966 ± 0.73	0.898 ± 0.045
333.15 K, x2 = 0.6999	934.99 ± 0.92	0.721 ± 0.037
333.15 K, x2 = 0.802	902.37 ± 1.1	0.54 ± 0.03
333.15 K, x2 = 0.8967	871.42 ± 1.3	0.479 ± 0.027
343.15 K, x2 = 0	1107.96 ± 1.2	2.707 ± 0.12
343.15 K, x2 = 0.0977	1086.23 ± 1.1	2.201 ± 0.1
343.15 K, x2 = 0.198	1062.45 ± 0.93	1.798 ± 0.083
343.15 K, x2 = 0.2987	1037.1 ± 0.77	1.466 ± 0.069
343.15 K, x2 = 0.4013	1010.54 ± 0.59	1.183 ± 0.057
343.15 K, x2 = 0.4983	985.32 ± 0.61	0.966 ± 0.048
343.15 K, x2 = 0.599	956.77 ± 0.79	0.787 ± 0.04
343.15 K, x2 = 0.6999	925.78 ± 0.98	0.637 ± 0.034
343.15 K, x2 = 0.802	892.86 ± 1.2	0.518 ± 0.029
343.15 K, x2 = 0.8967	861.54 ± 1.4	0.428 ± 0.025

— the NIST ThermoML archive (doi:10.1021/je060475r)
